{"source": "paper PMC6439305", "about": "(iScience, 2019)", "target": "MOR-Venus (mu opioid receptor fused to Venus-YFP) (Mus musculus, UniProt P42866)", "sequence (P42866 whole entry, the tested form may be a part)": "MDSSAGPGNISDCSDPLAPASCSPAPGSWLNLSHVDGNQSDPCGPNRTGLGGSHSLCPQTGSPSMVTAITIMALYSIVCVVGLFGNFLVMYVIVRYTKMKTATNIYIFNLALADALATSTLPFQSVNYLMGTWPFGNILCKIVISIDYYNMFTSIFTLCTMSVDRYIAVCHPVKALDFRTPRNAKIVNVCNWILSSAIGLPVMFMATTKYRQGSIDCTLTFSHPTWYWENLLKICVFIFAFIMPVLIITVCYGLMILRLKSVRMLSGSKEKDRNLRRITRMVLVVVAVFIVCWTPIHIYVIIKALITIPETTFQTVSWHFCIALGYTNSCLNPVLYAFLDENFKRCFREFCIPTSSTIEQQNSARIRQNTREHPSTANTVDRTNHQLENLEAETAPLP", "assay": "Galphai2/Ggamma2 BRET2 dissociation assay, HEK293", "format": "cell-based", "conditions": "agonist, 10 min stimulation", "data": [{"compound": "COc1ccc2c3c1O[C@H]1C(=O)CC[C@@]4(O)[C@@H](C2)N(C)CC[C@]314", "note": "[oxycodone]", "values": [{"measurement": "EC50", "result": "except for oxycodone, which had a trend of lower potency"}]}]}
